The assay relates to infection in critically ill and injured adult ICU subjects. In words: Variation (standard deviation) of exhaled 13CO2/12CO2 breath delta value (BDV) as a marker of response to antimicrobial treatment. Format: in vivo, human. The settings on record: single ICU subject of FIG. 15, BAL culture positive for Aspergillus fumigatus; cefuroxime days 1 through 7, cefepime added after day seven. The protocol:
The study was conducted as a multi-center prospective study, at four academic research hospitals, to assess exhaled ^13CO2/^12CO2 BDV as an indicator of infection in 20 critically ill and injured adult ICU subjects. Critically ill adult ICU subjects who were not suspected of having an infection at the time of ICU admission were enrolled as study subjects.
Exhaled breath samples were collected upon subject enrollment and every four hours thereafter until the subject was discharged home, transferred to a general care unit/status, or after seven days of breath sample collection, whichever came first. Each sample was collected in four-hour intervals, calculated from the initial sample time, with a window of ±1 hour. Samples collected outside of the specified time interval were still analyzed. […]
Breath samples were shipped to a central laboratory (Isomark, LLC, Madison, Wis.) within 48 hours of final collection from each subject. The breath samples were analyzed using the Canary™ device. The ^13CO2/^12CO2 ratio of each sample was determined from direct measurement and calculated using Pee Dee Belemnite (PDB) as a standard reference: […]
where BDV is expressed as parts per mil (‰). […] The delta over baseline (DOB) was then calculated by subtracting the baseline sample from subsequent samples as described: […]

Consider `CO/N=C(\C(=O)N[C@@H]1C(=O)N2C(C(=O)[O-])=C(C[N+]3(C)CCCC3)CS[C@H]12)c1csc(N)n1` [cefepime], for which the “mean variation of BDV” value is listed as 0.37 ‰. For `CO/N=C(\C(=O)N[C@@H]1C(=O)N2C(C(=O)O)=C(COC(N)=O)CS[C@H]12)c1ccco1` [cefuroxime], the “mean variation of BDV” value is 0.72 ‰.
